# Like-named read-outs stand apart in the source and are kept apart here. Numbered stars: 1 amine (or outer) side, 2 acyl side, 3 side chain; on linkers, the order of the positions; unused ones are H or OH. Bridge positions count the residues as written; N and C are the ends. Square brackets hold non-standard residues; d marks the D form. Peptide text beside a SMILES is read from it. * marks the point of attachment. X1 = CC[C@H](C)[C@@H](N[*:1])[C@@H](O)CC(=O)O[C@H](C(=O)[C@H](C)C(=O)[*:2])C(C)C; X9 = CCC(C)C(N[*:1])C(O)CC(=O)OC(C(=O)C(C)C(=O)[*:2])C(C)C; NMeY = CN[CH](Cc1ccc(O)cc1)C(=O)O; NMeCha = CN[C@@H](CC1CCCCC1)C(=O)O; Stearoyl = CCCCCCCCCCCCCCCCCC(=O)*; X8 = CC(C(=O)*)N1C(=O)c2ccccc2C1=O; dNMeL = CN[C@H](CC(C)C)C(=O)O; pGlu = O=C1CC[C@@H](C(=O)O)N1; Lauroyl = CCCCCCCCCCCC(=O)*; NMeL = CN[CH](CC(C)C)C(=O)O; Octanoyl = CCCCCCCC(=O)*; Pyruvoyl = CC(=O)C(=O)*; Hexanoyl = CCCCCC(=O)*; Pentanoyl = CCCCC(=O)*; Lac = C[C@H](O)C(=O)O; Sar = CNCC(=O)O
# Legend:
# [1] = tested on: Nb2 cells, rat T-cell node lymphoma; assay: Competitive binding with [3H]didemnin B to Nb2 cells; conditions: 3 h at 37° C.
# Protocol: The immunosuppressive assay was performed by measuring competitive binding of tested compounds with [^3 H]didemnin B to Nb2 cells, rat T-cell node lymphoma. See, Russell, D. H., et al., J. Immunology, 1987, 138, 276-284.
# ^a Competing didemnins incubated with approximately 25 ng of [^3
# [2] = tested on: L1210 murine leukemia cells; conditions: Table 9
# Visna virus (VIV) = assay type: cell-based; parameters: key to % Protection / VIV Protection: I, indeterminate
# L1210 [3] = assay: L1210 cytotoxicity, inhibition at fixed doses (Table 10); assay type: cell-based, murine
# L1210 [4] = conditions: for cytotoxicity (result in words): Table 1 footnote and text
# [5] = dose 25 ng/mL, tested 4/18/1991
# [6] = dose 25 ng/mL, tested 4/22/1990
# [7] = dose 250 ng/mL, tested 4/18/1991
# [8] = dose 250 ng/mL, tested 4/22/1990
molecule,measurement,setting,value
"CC[C@H](C)[C@H]1NC(=O)[C@@H](NC(=O)[C@@H](CC(C)C)N(C)C(=O)[C@@H]2CCCN2C(C)=O)[C@@H](C)OC(=O)[C@H](Cc2ccc(OC)cc2)N(C)C(=O)[C@@H]2CCCN2C(=O)[C@H](CC(C)C)NC(=O)[C@@H](C)C(=O)[C@H](C(C)C)OC(=O)C[C@@H]1O [[Acetyl^9]Didemnin B (103), [Acetyl^9]didemnin B] (Ac-P[dNMeL]T[X1]LP[NMeY](Me); ester 3-C)",Inhibition of [3H]didemnin B binding (%),[1]; 0.001 μg/mL,3%
same,Inhibition of [3H]didemnin B binding (%),[1]; 0.01 μg/mL,2%
same,Inhibition of [3H]didemnin B binding (%),[1]; 0.1 μg/mL,67%
same,Inhibition of [3H]didemnin B binding (%),[1]; 1 μg/mL,85%
same,Cytotoxicity L1210 IC50,[2],0.2 ng/mL
same,VIV Protection,Visna virus (VIV),-123
"CC[C@H](C)[C@H]1NC(=O)[C@@H](NC(=O)[C@@H](CC(C)C)NC)[C@@H](C)OC(=O)[C@H](CC2CCCCC2)N(C)C(=O)[C@@H]2CCCN2C(=O)[C@H](CC(C)C)NC(=O)[C@@H](C)C(=O)[C@H](C(C)C)OC(=O)C[C@@H]1O [[H6 -N-MePhe^5] didemnin A (117), [Hexahydro-N-MePhe^5]didemnin A] (H-[dNMeL]T[X1]LP[NMeCha]; ester 2-C)",Inhibition (%),L1210 [3]; [5],25%
same,Inhibition (%),L1210 [3]; [6],75%
same,Inhibition (%),L1210 [3]; [7],94%
same,Inhibition (%),L1210 [3]; [8],98%
"CC[C@H](C)[C@H]1NC(=O)[C@@H](NC(=O)[C@@H](CC(C)C)N(C)C(=O)[C@@H]2CCCN2C(=O)[C@H](C)OC(=O)[C@H](CCC(N)=O)NC(=O)[C@@H]2CCC(=O)N2)[C@@H](C)OC(=O)[C@H](Cc2ccc(OC)cc2)N(C)C(=O)[C@@H]2CCCN2C(=O)[C@H](CC(C)C)NC(=O)[C@@H](C)C(=O)[C@H](C(C)C)OC(=O)C[C@@H]1O [Didemnin M (12), Didemnin M] ([pGlu]Q[Lac]P[dNMeL]T[X1]LP[NMeY](Me); ester 6-C)",Cytotoxicity L1210 IC50,[2],0.4 ng/mL
same,VIV Protection,Visna virus (VIV),-73
"CC[C@H](C)[C@H]1NC(=O)[C@@H](NC(=O)[C@@H](CC(C)C)N(C)C(=O)CN(C)C(=O)C(C)=O)[C@@H](C)OC(=O)[C@H](Cc2ccc(OC)cc2)N(C)C(=O)[C@@H]2CCCN2C(=O)[C@H](CC(C)C)NC(=O)[C@@H](C)C(=O)[C@H](C(C)C)OC(=O)C[C@@H]1O [Pyruv-Sar-DA, Pyruv-Sar Didemnin A] (Pyruvoyl-[Sar][dNMeL]T[X1]LP[NMeY](Me); ester 3-C)",IC50,L1210 cells,1 ng/mL
same,cytotoxicity,L1210 cells,completely inactive
same,% Protection,Visna virus (VIV),I
Didemnin Y [Didemnin Y (11)],Cytotoxicity L1210 IC50,[2],2 ng/mL
same,VIV Protection,Visna virus (VIV),-33
"CCCCCCCCCCCC(=O)N(C)[C@H](CC(C)C)C(=O)N[C@@H]1C(=O)N[C@H]([C@@H](C)CC)[C@@H](O)CC(=O)O[C@@H](C(C)C)C(=O)[C@H](C)C(=O)N[C@@H](CC(C)C)C(=O)N2CCC[C@H]2C(=O)N(C)[C@@H](Cc2ccc(OC)cc2)C(=O)O[C@@H]1C [lauroyl, N-lauroyl didemnin A] (Lauroyl-[dNMeL]T[X1]LP[NMeY](Me); ester 2-C)",cytotoxicity (result in words),L1210 [4],inactive
Didemnin X [Didemnin X (10)],Cytotoxicity L1210 IC50,[2],2 ng/mL
same,VIV Protection,Visna virus (VIV),-25
"CCC(C)C1NC(=O)C(NC(=O)C(CC(C)C)N(C)C(=O)C2CCCN2C(=O)C(C)N2C(=O)c3ccccc3C2=O)C(C)OC(=O)C(Cc2ccc(OC)cc2)N(C)C(=O)C2CCCN2C(=O)C(CC(C)C)NC(=O)C(C)C(=O)C(C(C)C)OC(=O)CC1O (centres unmarked) [Phthalimidedidemnin B (82), Phthalimide didemnin B] (X8-P[NMeL]T[X9]LP[NMeY](Me); ester 3-C; configuration not given here)",Inhibition (%),L1210 [3]; [5],98%
same,Inhibition (%),L1210 [3]; [7],99%
Nordidemnin A [Nordidemnin A (21)],Cytotoxicity L1210 IC50,[2],30 ng/mL
same,VIV Protection,"Visna virus (VIV); Table 9, 0.1 μg/mL",< 0%
N-palmitoyl didemnin A,cytotoxicity (result in words),L1210 [4],inactive
Isodidemnin A1 [Isodidemnin A1 (1a)],Cytotoxicity L1210 IC50,[2],10 ng/mL
same,VIV Protection,Visna virus (VIV),< 0
"CC[C@H](C)[C@H]1NC(=O)[C@@H](NC(=O)[C@@H](CC(C)C)N(C)C(=O)[C@@H]2CCCN2C(=O)[C@H](C)O)[C@@H](C)OC(=O)[C@H](CC2CCC(OC)CC2)N(C)C(=O)[C@@H]2CCCN2C(=O)[C@H](CC(C)C)NC(=O)[C@@H](C)C(=O)[C@H](C(C)C)OC(=O)C[C@@H]1O (some centres unmarked) [[H6 Me2 Tyr^5]didemnin B (116), [HexahydroMe2 Tyr^5]didemnin B]",Inhibition (%),L1210 [3]; [5],99%
same,Inhibition (%),L1210 [3]; [6],98%
same,Inhibition (%),L1210 [3]; [7],99%
same,Inhibition (%),L1210 [3]; [8],99%
"CCCCCCCC(=O)N(C)[C@H](CC(C)C)C(=O)N[C@@H]1C(=O)N[C@H]([C@@H](C)CC)[C@@H](O)CC(=O)O[C@@H](C(C)C)C(=O)[C@H](C)C(=O)N[C@@H](CC(C)C)C(=O)N2CCC[C@H]2C(=O)N(C)[C@@H](Cc2ccc(OC)cc2)C(=O)O[C@@H]1C [N^a -Octanoyl-, N-octanoyl didemnin A] (Octanoyl-[dNMeL]T[X1]LP[NMeY](Me); ester 2-C)",cytotoxicity (result in words),L1210 [4],retained the cytotoxicity of didemnin B
same,Cytotoxicity percent L1210 inhibition,L1210 [4]; dose 5 ng/mL,89%
same,Cytotoxicity percent L1210 inhibition,L1210 [4]; dose 12.5 ng/mL,93%
same,Cytotoxicity percent L1210 inhibition,L1210 [4]; dose 25 ng/mL,94%
"CC[C@H](C)[C@H]1NC(=O)[C@@H](NC(=O)[C@@H](CC(C)C)N(C)C(=O)[C@@H]2CCCN2C(=O)[C@H](C)OC(=O)[C@@H]2CCC(=O)N2)[C@@H](C)OC(=O)[C@H](Cc2ccc(OC)cc2)N(C)C(=O)[C@@H]2CCCN2C(=O)[C@H](CC(C)C)NC(=O)[C@@H](C)C(=O)[C@H](C(C)C)OC(=O)C[C@@H]1O [pGlu-didemnin B (113), O-Pyroglutamyldidemnin B] ([pGlu][Lac]P[dNMeL]T[X1]LP[NMeY](Me); ester 5-C)",Cytotoxicity L1210 IC50,[2],0.4 ng/mL
same,VIV Protection,Visna virus (VIV),-65
"CC[C@H](C)[C@H]1NC(=O)[C@@H](NC(=O)[C@@H](CC(C)C)N(C)C(=O)[C@@H]2CCCN2C(=O)[C@H](C)O)[C@@H](C)OC(=O)[C@H](CC2CCCCC2)N(C)C(=O)[C@@H]2CCCN2C(=O)[C@H](CC(C)C)NC(=O)[C@@H](C)C(=O)[C@H](C(C)C)OC(=O)C[C@@H]1O [[H6 -N-MePhe^5] didemnin B (118), [Hexahydro-N-MePhe^5]didemnin B]",Inhibition (%),L1210 [3]; [5],99%
same,Inhibition (%),L1210 [3]; [6],99%
same,Inhibition (%),L1210 [3]; [7],99%
same,Inhibition (%),L1210 [3]; [8],99%
Didemnin D [Didemnin D (19)],Cytotoxicity L1210 IC50,[2],0.5 ng/mL
same,VIV Protection,Visna virus (VIV),-53
"CCCCCCCCCCCCCCCCCC(=O)N(C)[C@H](CC(C)C)C(=O)N[C@@H]1C(=O)N[C@H]([C@@H](C)CC)[C@@H](O)CC(=O)O[C@@H](C(C)C)C(=O)[C@H](C)C(=O)N[C@@H](CC(C)C)C(=O)N2CCC[C@H]2C(=O)N(C)[C@@H](Cc2ccc(OC)cc2)C(=O)O[C@@H]1C [stearoyl, N-stearoyl didemnin A] (Stearoyl-[dNMeL]T[X1]LP[NMeY](Me); ester 2-C)",cytotoxicity (result in words),L1210 [4],inactive
"CCCCCC(=O)N(C)[C@H](CC(C)C)C(=O)N[C@@H]1C(=O)N[C@H]([C@@H](C)CC)[C@@H](O)CC(=O)O[C@@H](C(C)C)C(=O)[C@H](C)C(=O)N[C@@H](CC(C)C)C(=O)N2CCC[C@H]2C(=O)N(C)[C@@H](Cc2ccc(OC)cc2)C(=O)O[C@@H]1C [N^a -Hexanoyl-, N-hexanoyl didemnin A] (Hexanoyl-[dNMeL]T[X1]LP[NMeY](Me); ester 2-C)",cytotoxicity (result in words),L1210 [4],retained the cytotoxicity of didemnin B
same,Cytotoxicity percent L1210 inhibition,L1210 [4]; dose 5 ng/mL,73%
same,Cytotoxicity percent L1210 inhibition,L1210 [4]; dose 12.5 ng/mL,89%
same,Cytotoxicity percent L1210 inhibition,L1210 [4]; dose 25 ng/mL,92%
N-(CH3 ONsu)didemnin A [N-(CH3 ONsu)-didemnin A (111)],VIV Protection,Visna virus (VIV),-43
Didemnin E [Didemnin E (20)],Cytotoxicity L1210 IC50,[2],0.5 ng/mL
same,VIV Protection,Visna virus (VIV),-73
"CCCCC(=O)N(C)[C@H](CC(C)C)C(=O)N[C@@H]1C(=O)N[C@H]([C@@H](C)CC)[C@@H](O)CC(=O)O[C@@H](C(C)C)C(=O)[C@H](C)C(=O)N[C@@H](CC(C)C)C(=O)N2CCC[C@H]2C(=O)N(C)[C@@H](Cc2ccc(OC)cc2)C(=O)O[C@@H]1C [N^a -Pentanoyl-, N-pentanoyl didemnin A] (Pentanoyl-[dNMeL]T[X1]LP[NMeY](Me); ester 2-C)",cytotoxicity (result in words),L1210 [4],retained the cytotoxicity of didemnin B
same,Cytotoxicity percent L1210 inhibition,L1210 [4]; dose 5 ng/mL,56%
same,Cytotoxicity percent L1210 inhibition,L1210 [4]; dose 12.5 ng/mL,81%
same,Cytotoxicity percent L1210 inhibition,L1210 [4]; dose 25 ng/mL,91%
"CC[C@H](C)[C@H]1NC(=O)[C@@H](NC(=O)[C@@H](CC(C)C)NC)[C@@H](C)OC(=O)[C@H](CC2CCC(OC)CC2)N(C)C(=O)[C@@H]2CCCN2C(=O)[C@H](CC(C)C)NC(=O)[C@@H](C)C(=O)[C@H](C(C)C)OC(=O)C[C@@H]1O (some centres unmarked) [[H6 Me2 Tyr^5]didemnin A (115), [HexahydroMe2 Tyr^5]didemnin A]",Inhibition (%),L1210 [3]; [6],17%
same,Inhibition (%),L1210 [3]; [8],94%
[AnhydroIst^1 ]Phthalimide didemnin B,Inhibition (%),L1210 [3]; [5],81%
same,Inhibition (%),L1210 [3]; [7],99%

# — patent publication US5294603A, “Pharmaceutical compositions containing didemnins” (The Board of Trustees of The University of Illinois, priority 1992, dated 1994)
